Values after ≈ are worked out from the molar mass of the structure shown. Active and inactive are the calls of the source. No cut-off for these calls is given here.
Experiments:
Neospora caninum = assay: Antimicrobial activity against Neospora caninum up to 1 ug/ml; format: functional, organism-based
Giardia intestinalis [1] = assay: Antimicrobial activity against Giardia duodenalis WB; format: functional, organism-based
Babesia divergens [2] = assay: Antimicrobial activity against Babesia divergens 4201; format: functional, organism-based
[3] = test system: Trypanosoma brucei rhodesiense; assay: Antitrypanosomal activity against Trypanosoma brucei rhodesiense STIB900; format: functional, organism-based
Leishmania donovani [4] = assay: Antileishmanial activity against Leishmania donovani MHOM-ET-67/L82 amastigotes by axenic assay; format: functional, organism-based
Babesia divergens [5] = assay: Antimicrobial activity against Babesia divergens 1903B; format: functional, organism-based
Giardia intestinalis [6] = assay: Antimicrobial activity against Giardia duodenalis G1; format: functional, organism-based
Plasmodium falciparum [7] = assay: Antiplasmodial activity against Plasmodium falciparum K1; format: functional, organism-based
Plasmodium falciparum [8] = assay: Antiplasmodial activity against Plasmodium falciparum NF54; format: functional, organism-based
Trypanosoma cruzi = assay: Antitrypanosomal activity against Trypanosoma cruzi Tulahuen C4; format: functional, organism-based
[9] = Inhibition of Plasmodium falciparum ATP6
Toxoplasma gondii = assay: Antimicrobial activity against Toxoplasma gondii in normal human foreskin fibroblasts; format: functional, organism-based
Leishmania major = assay: Antileishmanial activity against Leishmania major amastigotes; format: functional, organism-based
Pneumocystis carinii = assay: Antimicrobial activity against Pneumocystis carinii at 0.14 ug/ml in feeder layer cells; format: functional
Leishmania donovani [10] = assay: Antileishmanial activity against Leishmania donovani promastigotes; format: functional, organism-based

SMILES | Activity (Neospora caninum) | IC50 (Giardia intestinalis [1]) [µg/mL] | IC50 (Babesia divergens [2]) [µg/mL] | IC50 [3] [µg/mL] | IC50 (Leishmania donovani [4]) [µg/mL] | IC50 (Babesia divergens [5]) [µg/mL] | IC50 (Giardia intestinalis [6]) [µg/mL] | IC50 (Plasmodium falciparum [7]) [µg/mL] | IC50 (Plasmodium falciparum [8]) [µg/mL] | IC50 (Trypanosoma cruzi) [µg/mL] | IC50 [9] [µM] | IC50 (Toxoplasma gondii) [µg/mL] | IC50 (Leishmania major) [µg/mL] | inhibition at 0.14 µg/mL (Pneumocystis carinii) [%] | IC50 (Leishmania donovani [10]) [µg/mL]
C[C@@H]1CC[C@H]2[C@@H](C)C(=O)O[C@@H]3O[C@@]4(C)CC[C@@H]1[C@]32O4 [DEOXYARTEMISININ] | inactive | 91 (≈ 342 µM) | > 10 | 34 (≈ 128 µM) | > 30 | > 10 | 28 (≈ 105 µM) | > 10 | > 10 | > 30 | – | – | – | – | –
CCCCCCCCCCCCCCCCOP(=O)([O-])OCC[N+](C)(C)C [MILTEFOSINE] | – | – | – | – | 0.2 (≈ 0.491 µM) | – | – | – | – | – | – | – | – | – | –
O=C(Cn1ccnc1[N+](=O)[O-])NCc1ccccc1 [BENZNIDAZOLE] | – | – | – | – | – | – | – | – | – | 0.14 (≈ 0.538 µM) | – | – | – | – | –
CC(C)(N)CNC(=O)C[C@H]1CC[C@]2(CC1)OO[C@]1(O2)C2CC3CC(C2)CC1C3 [OZ277] | inactive | 41 (≈ 104 µM) | > 10 | 0.56 (≈ 1.43 µM) | 24 (≈ 61.1 µM) | > 10 | 49 (≈ 125 µM) | – | 0.00091 (≈ 0.00232 µM) | 9.5 (≈ 24.2 µM) | 7.7 | – | – | – | –
O=C1C(O)=C([C@H]2CC[C@H](c3ccc(Cl)cc3)CC2)C(=O)c2ccccc21 [ATOVAQUONE] | – | – | 0.0087 (≈ 0.0237 µM) | – | – | 0.0091 (≈ 0.0248 µM) | – | – | – | – | – | – | – | – | –
CC(C)(N)CNC(=O)CC1CC[C@]2(CC1)OC[C@]1(O2)C2CC3CC(C2)CC1C3 (stereo partly specified) | inactive | 38 (≈ 97.3 µM) | 7.5 (≈ 19.2 µM) | 0.77 (≈ 1.97 µM) | 20 (≈ 51.2 µM) | 6.7 (≈ 17.2 µM) | 18 (≈ 46.1 µM) | 2.5 (≈ 6.4 µM) | 4.9 (≈ 12.5 µM) | 13 (≈ 33.3 µM) | – | – | – | – | –
C[C@@H]1CC[C@H]2[C@@H](C)C(=O)O[C@@H]3O[C@@]4(C)CC[C@@H]1[C@]32OO4 [ARTEMISININ] | inactive | 65 (≈ 230 µM) | > 10 | 25 (≈ 88.5 µM) | 8.8 (≈ 31.2 µM) | > 10 | 49 (≈ 174 µM) | 0.002 (≈ 0.00708 µM) | 0.004 (≈ 0.0142 µM) | > 30 | 0.079 | 2.3 (≈ 8.15 µM) | 8 (≈ 28.3 µM) | 55 | 8 (≈ 28.3 µM)
CCCSc1ccc2[nH]c(NC(=O)OC)nc2c1 [ALBENDAZOLE] | – | 0.019 (≈ 0.0716 µM) | – | – | – | – | 0.018 (≈ 0.0678 µM) | – | – | – | – | – | – | – | –

Reference: ChEMBL document CHEMBL1155772, “Peroxide bond-dependent antiplasmodial specificity of artemisinin and OZ277 (RBx11160)” (Antimicrob Agents Chemother, 2007)
